Results reported in patent US10206907B2, “Compounds useful for the treatment of degenerative and inflammatory diseases” (GALAPAGOS NV, priority 2008, dated 2019).

Experiments:
[1] = test system: JAK-STAT signalling in HeLa cells; assay: JAK-STAT signalling assay (OSM-triggered pSTAT1(2)-luciferase reporter in HeLa cells); format: cell-based; details: Homo sapiens; HeLa cells, OSM-triggered pSTAT1(2)-luciferase reporter; read-out: STAT signalling EC50
How it was run: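 HeLa cells transiently transfected with pSTAT1(2)-luciferase reporter plus LacZ internal control, incubated overnight at 37 °C, 10% CO2, then OSM-stimulated with compound. Luciferase read by Steadylite luminescence and normalised to β-galactosidase (ONPG); percent inhibition from controls, EC50 from dose-response.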

MMP13 in SW1353 cells = assay: OSM/IL-1β signaling assay (MMP13 levels in SW1353 cells); format: cell-based; details: Homo sapiens; SW1353 cells, OSM and IL-1β triggered, MMP13 levels 48 hours after triggering; read-out: MMP13 EC50;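 also: secreted MMP13 captured by antibody, activated with APMA and its activity read by fluorescence, inhibition scaled between vehicle-treated triggered wells (0%) and untriggered wells (100%)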
TNF-alpha release = assay: Septic shock model (LPS-induced TNF release); format: in vivo, mouse; details: 30 mg/kg po, BALB/cJ mice, LPS ip; statistically significant
Protocol: Injection of lipopolysaccharide (LPS) induces a rapid release of soluble tumour necrosis factor (TNF-alpha) into the periphery. This model is used to analyse prospective blockers of TNF release in vivo.
Six BALB/cJ female mice (20 g) per group were treated at the intended dosing once, po. Thirty minutes later, LPS (15 μg/kg; E. Coli serotype 0111:B4) was injected ip. Ninety minutes later, mice were euthanized and blood was collected. Circulating TNF alpha levels were determined using commercially available ELISA kits. Dexamethasone (5 μg/kg) was used as a reference anti-inflammatory compound. Selected compounds are tested at one or multiple doses, e.g. 3 and/or 10 and/or 30 mg/kg, po.

[2] = Microsomal stability, human liver microsomes; format: in vitro ADME; details: percentage of compound remaining after 60 minutes, 3 μM compound
How it was run: (§1)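 Compound was incubated with liver microsomes plus an NADP+/glucose-6-phosphate/G6PDH/MgCl2 regenerating system at 37°C for 1 h. Reactions were stopped 1:1 with MeOH or ACN and analysed by LCMS.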

[3] = Microsomal stability, rat liver microsomes; format: in vitro ADME; details: percentage of compound remaining after 60 minutes, 3 μM compound
How it was run: as §1

[4] = Caco2 permeability (bi-directional); format: in vitro ADME, human; details: human, pH 7.4; for efflux ratio at 1 h, 10 µM: Caco-2, ratio of PappB>A/PappA>B; for Papp A→B at 1 h, 10 µM: Caco-2, apical to basolateral, read-out: Papp (A2B)
How it was run: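 Bidirectional transport across Caco-2 monolayers was run for 1 h at 37 °C with shaking, with 50 μM Lucifer Yellow in the donor to check monolayer integrity (acceptance ≤100 nm/s). Apical and basal compound levels were measured by LC-MS/MS, and efflux ratio was taken as PappB>A/PappA>B.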

[5] = molecular target: Recombinant human JAK1 catalytic domain (Homo sapiens (Human), UniProt P23458); assay: JAK1 inhibition assay; format: biochemical; details: semi-quantitative score
How it was run: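 Radiometric assay read by scintillation counting after phosphoric-acid washes. Percent inhibition calculated from cpm relative to vehicle and 10 μM staurosporine control. IC50 derived from compound dose-dilution series.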

[6] = molecular target: Recombinant human JAK2 catalytic domain (Homo sapiens (Human), UniProt O60674); assay: JAK2 inhibition assay; format: biochemical; details: semi-quantitative score
How it was run: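 Radiometric kinase reactions ran for 90 min at 30 °C and were stopped with phosphoric acid, then washed and counted by scintillation. Percent inhibition was set relative to vehicle and to 10 μM staurosporine background. IC50 was derived from dose-dilution series.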

[7] = molecular target: Recombinant human JAK3 catalytic domain (Homo sapiens (Human), UniProt P52333); assay: JAK3 inhibition assay; format: biochemical; details: semi-quantitative score
[8] = molecular target: Recombinant human TYK2 catalytic domain (Homo sapiens (Human), UniProt P29597); assay: TYK2 inhibition assay; format: biochemical; details: semi-quantitative score
How it was run: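 Recombinant human TYK2 catalytic domain; radiometric kinase reaction run 90 min at 30° C, stopped with phosphoric acid, washed and counted by scintillation.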

Chain of Recombinant human JAK2 catalytic domain (O60674 808-1132): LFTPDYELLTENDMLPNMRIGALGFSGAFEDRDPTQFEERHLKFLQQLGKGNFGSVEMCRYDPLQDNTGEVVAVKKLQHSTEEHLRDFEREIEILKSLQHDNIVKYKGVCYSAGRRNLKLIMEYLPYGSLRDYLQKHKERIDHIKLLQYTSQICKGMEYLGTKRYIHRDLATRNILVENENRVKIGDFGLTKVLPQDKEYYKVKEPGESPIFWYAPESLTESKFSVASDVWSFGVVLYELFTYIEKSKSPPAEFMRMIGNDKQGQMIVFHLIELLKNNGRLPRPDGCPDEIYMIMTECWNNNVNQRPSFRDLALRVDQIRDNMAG
Chain of Recombinant human JAK3 catalytic domain (P52333 781-1124): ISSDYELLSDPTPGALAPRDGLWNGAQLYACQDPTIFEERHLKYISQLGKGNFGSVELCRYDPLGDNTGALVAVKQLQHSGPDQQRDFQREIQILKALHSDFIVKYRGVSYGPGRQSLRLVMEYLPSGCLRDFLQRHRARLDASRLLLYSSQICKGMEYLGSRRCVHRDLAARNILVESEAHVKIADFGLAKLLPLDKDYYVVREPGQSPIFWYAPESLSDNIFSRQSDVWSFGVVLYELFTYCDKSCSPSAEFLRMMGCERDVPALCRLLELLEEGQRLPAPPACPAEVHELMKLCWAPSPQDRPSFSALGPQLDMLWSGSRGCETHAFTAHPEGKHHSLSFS
Chain of Recombinant human JAK1 catalytic domain (P23458 850-1154): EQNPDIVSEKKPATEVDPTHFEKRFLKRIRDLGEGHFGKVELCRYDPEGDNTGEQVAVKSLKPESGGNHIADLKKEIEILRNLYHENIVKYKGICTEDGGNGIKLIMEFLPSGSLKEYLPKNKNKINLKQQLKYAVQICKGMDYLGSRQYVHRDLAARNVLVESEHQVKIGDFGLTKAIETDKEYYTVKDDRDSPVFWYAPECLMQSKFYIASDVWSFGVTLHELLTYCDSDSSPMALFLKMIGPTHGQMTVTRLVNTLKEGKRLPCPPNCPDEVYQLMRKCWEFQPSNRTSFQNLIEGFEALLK
Chain of Recombinant human TYK2 catalytic domain (P29597 871-1187): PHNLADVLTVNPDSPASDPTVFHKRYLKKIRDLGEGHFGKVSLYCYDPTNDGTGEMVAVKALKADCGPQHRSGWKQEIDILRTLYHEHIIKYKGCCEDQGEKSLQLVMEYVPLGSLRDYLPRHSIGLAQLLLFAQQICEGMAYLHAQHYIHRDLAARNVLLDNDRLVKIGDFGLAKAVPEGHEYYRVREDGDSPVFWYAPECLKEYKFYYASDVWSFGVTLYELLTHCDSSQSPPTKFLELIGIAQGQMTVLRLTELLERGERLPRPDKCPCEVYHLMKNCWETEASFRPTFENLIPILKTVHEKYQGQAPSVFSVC

EC50 [1] | EC50 (MMP13 in SW1353 cells) | Microsomal Stability Human (%) [2] | Microsomal Stability Rat (%) [3] | efflux ratio at 1 h, 10 µM [4] | IC50 [5] | IC50 [6] | IC50 [7] | IC50 [8] | Papp A→B at 1 h, 10 µM [4] | SMILES | reduction in the TNF release (TNF-alpha release)
101 to 500 nM | 501 to 1000 nM | * (* 0-25) | *** (*** 51-75) | 0.89 |  |  |  |  |  | O=C(Nc1nc2cccc(-c3ccc(OCc4cccnc4)cc3)n2n1)C1CC1 [Compound 36, N-(5-(4-(pyridin-3-ylmethoxy)phenyl)-[1,2,4]triazolo[1,5-a]pyridin-2-yl)cyclopropanecarboxamide] | > 50%
101 to 500 nM | > 1000 nM | *** (*** 51-75) | **** (**** 76-100) | 0.82 | < 100 nM | < 100 nM | < 100 nM |  | 23.4 ×10⁻⁶ cm/s | O=C(Nc1nc2cccc(-c3ccc(OCc4ccccc4)cc3)n2n1)C1CC1 [Compound 12, N-(5-(4-(benzyloxy)phenyl)-[1,2,4]triazolo[1,5-a]pyridin-2-yl)cyclopropanecarboxamide] | > 50%
> 1000 nM | > 1000 nM | **** (**** 76-100) | **** (**** 76-100) | 104 | < 100 nM | < 100 nM |  |  | 0.05 ×10⁻⁶ cm/s | O=C(Nc1nc2cccc(-c3ccc(C(=O)N4CCS(=O)(=O)CC4)cc3)n2n1)C1CC1 [Compound 207, Cyclopropanecarboxylic acid {5-[4-(1,1-dioxo-thiomorpholine-4-carbonyl)-phenyl]-[1,2,4]triazolo[1,5-a]pyridin-2-yl}-amide] | > 50%

Continued, compound first:

SMILES | EC50 [1] | EC50 (MMP13 in SW1353 cells) | Microsomal Stability Human (%) [2] | Microsomal Stability Rat (%) [3] | efflux ratio at 1 h, 10 µM [4] | IC50 [5] | IC50 [6] | IC50 [7] | IC50 [8] | Papp A→B at 1 h, 10 µM [4] | reduction in the TNF release (TNF-alpha release)
CC(=O)N(Cc1ccccn1)c1ccc(-c2cccc3nc(NC(=O)C4CC4)nn23)cc1 [Compound 208, Cyclopropanecarboxylic acid {5-[4-(acetyl-pyridin-2-ylmethyl-amino)-phenyl]-[1,2,4]triazolo[1,5-a]pyridin-2-yl}-amide] | > 1000 nM | > 1000 nM | *** (*** 51-75) | **** (**** 76-100) |  | < 100 nM | < 100 nM |  |  |  | > 50%
O=C(NCCOc1ccccc1)c1ccc(-c2cccc3nc(NC(=O)C4CC4)nn23)cc1 [Compound 60, 4-(2-(cyclopropanecarboxamido)-[1,2,4]triazolo[1,5-a]pyridin-5-yl)-N-(2-phenoxyethyl)benzamide] | 101 to 500 nM | 501 to 1000 nM | ** (** 26-50) | * (* 0-25) | 2.55 | < 100 nM | < 100 nM | 101 to 500 nM | 501 to 1000 nM | 16.9 ×10⁻⁶ cm/s | > 50%
O=C(Nc1nc2cccc(-c3ccc(CNc4ncccn4)cc3)n2n1)C1CC1 [Compound 229, Cyclopropanecarboxylic acid {5-[4-(pyrimidin-2-ylaminomethyl)-phenyl]-[1,2,4]triazolo[1,5-a]pyridin-2-yl}-amide] | 501 to 1000 nM | 501 to 1000 nM | *** (*** 51-75) | *** (*** 51-75) | 1.6 | < 100 nM | < 100 nM |  |  | 25.9 ×10⁻⁶ cm/s | > 50%
Cc1cc(COc2ccc(-c3cccc4nc(NC(=O)C5CC5)nn34)cc2)no1 [Compound 52, N-(5-(4-((5-methylisoxazol-3-yl)methoxy)phenyl)-[1,2,4]triazolo[1,5-a]pyridin-2-yl)cyclopropanecarboxamide] | 501 to 1000 nM | > 1000 nM | * (* 0-25) | * (* 0-25) | 1.02 | < 100 nM | < 100 nM | 501 to 1000 nM | 501 to 1000 nM | 31.8 ×10⁻⁶ cm/s | > 50%
O=C(Nc1nc2cccc(-c3ccc(OCc4ccc(-n5cccn5)cc4)cc3)n2n1)C1CC1 [Compound 125] | > 1000 nM | > 1000 nM | *** (*** 51-75) | **** (**** 76-100) |  | < 100 nM |  | < 100 nM |  |  | > 50%
O=C(Nc1nc2cccc(-c3ccc(C(=O)N4CCC(C(=O)c5ccccc5)CC4)cc3)n2n1)C1CC1 [Compound 74, N-(5-(4-(4-benzoylpiperidine-1-carbonyl)phenyl)-[1,2,4]triazolo[1,5-a]pyridin-2-yl)cyclopropanecarboxamide] | > 1000 nM | > 1000 nM | * (* 0-25) | **** (**** 76-100) | 1.14 | < 100 nM | 101 to 500 nM | > 1000 nM |  | 23.3 ×10⁻⁶ cm/s | > 50%
Cc1ccc(COc2ccc(-c3cccc4nc(NC(=O)C5CC5)nn34)cc2)cn1 [Compound 197, Cyclopropanecarboxylic acid {5-[4-(6-methyl-pyridin-3-ylmethoxy)-phenyl]-[1,2,4]triazolo[1,5-a]pyridin-2-yl}-amide] | 101 to 500 nM | > 1000 nM | ** (** 26-50) | *** (*** 51-75) |  | < 100 nM | < 100 nM |  |  |  | > 50%
O=C(Nc1nc2cccc(-c3ccc(C(=O)N4CCC(C(F)(F)F)CC4)cc3)n2n1)C1CC1 [Compound 148, N-(5-(4-(4-(trifluoromethyl)piperidine-1-carbonyl)phenyl)-[1,2,4]triazolo[1,5-a]pyridin-2-yl)cyclopropanecarboxamide] | > 1000 nM | > 1000 nM | *** (*** 51-75) | ** (** 26-50) |  | < 100 nM |  |  |  |  | > 50%
